Reference: ChEMBL document CHEMBL2169792, “Synthesis of new 4-thiazolidinone-, pyrazoline-, and isatin-based conjugates with promising antitumor activity” (J Med Chem, 2012)

System: MOLT-4
Experiment: Cytotoxicity against human MOLT4 cells after 48 hrs by SRB assay
Type: functional
Details: MOLT-4, 48 h

COc1ccc(C2CC(c3ccc4ccccc4c3)=NN2C2=NC(=O)/C(=C3\C(=O)Nc4ccc(Br)cc43)S2)cc1 (stereo not drawn)
GI50: 30.7 nM
TGI: 521 nM
CC50 (read-out: LC50 (the source's name)): > 100000 nM
